Eleven compounds from publication PMC6268546, “A PAMPA Assay as Fast Predictive Model of Passive Human Skin Permeability of New Synthesized Corticosteroid C-21 Esters” (Molecules, 2012) can be followed below.

The data set in a line: PAMPA test (skin permeability model). The settings on record: 70% silicone oil-30% IPM membrane, 7 h incubation, 100 μM in 5% DMSO phosphate buffer pH 7, triplicate mean. As for the experimental part:
The study was performed in triplicate and the results are presented as mean values. After the PAMPA tests was performed, a HPLC method was used to measure the concentrations of the investigated corticosteroids: the initial concentration–CD(0) in the starting solution, the residual concentration–CD(t) in the donor compartment (7 h after incubation) and the transferred concentration–CA(t) in the acceptor compartment (7 h after incubation). The assay was performed using the previously described HPLC method with mobile phase modification for determination of standard corticosteroids. The mobile phase modification was introduced to achieve complete separation standard corticosteroids peak from DMSO peak, which was used as cosolvent. DMSO was used as cosolvent with the aim of increasing the corticosteroid C-21 esters’ solubility. DMSO is one of the earliest and most widely studied penetration enhancers for transdermal drug delivery systems.
On the basis of the initial (100 μM) and calculated residual and transferred concentrations according to peak area comparison at zero time t0, the retention factors–R and permeability coefficients–logPe of investigated corticosteroids were obtained.
Phosphate buffer (pH = 7) was prepared by dissolving NaH2PO4·H2O (1.167 g) and Na2HPO4·7H2O (3.093 g) in water (1000 mL) with the fixed total concentration of 20 mM. The 5% DMSO solution were prepared dissolving DMSO in phosphate buffer. The corticosteroid solutions were prepared dissolving the investigated corticosteroid standards as well as new synthesized corticosteroid C-21 esters in 5% DMSO solution. […] An aliquot of previously prepared mixture (3.5 mL, 7 mL silicone oil and 3 mL IPM) was transferred into a 10 mL volumetric flask, dissolved and fill up to mark with n-hexane.
Permeation experiments were carried out in hydrophobic PVDF 96-well filter plates (Millipore, Molsheim, France). […] Next, in each well of acceptor plate, 5% DMSO solution (400 μL) was transferred with an automatic pipette and covered by the donor plate, creating a PAMPA sandwich. In each well of the donor plate solutions of the tested corticosteroid in 5% DMSO solution (100 μM, 300 μL) was transferred by the use of an automatic pipette. Each substance was measured in triplicate at iso-pH conditions (the same pH value in donor and receptor compartment). The donor plate was covered to prevent evaporation and the whole system set up to interact with the vibratory mixer. After 7 h, PAMPA sandwich was removed from the mixer and vibration, and using the HPLC method the concentration of the investigated substances in the donor and receptor compartments were determined. The HPLC method used was as previously described but with some necessary modifications. A mobile phase of methanol–water (75:25 v/v) was used for analysis of corticosteroid C-21 esters, while the mobile phase methanol–water (50:50 v/v) was used for the analysis of unesterified corticosteroids to increase their retention time and prevent overlapping with the DMSO peak. Other HPLC parameters were as previously described. The concentrations of each tested corticosteroid in the appropriate time interval in the donor and acceptor compartments were calculated using the method of comparing the peak area of the initial concentration at zero time t0.
The values of permeability coefficients–logPe and retention factors–R of examined corticosteroids were calculated using equations (2) and (3). The retention factor, R can be defined as the mole fraction retained in the membrane and in the microplates (i.e., filters and plate materials): [drawing 1] (2) where CA(t)/CD(0) represents the amount of compound that reached the acceptor compartment after incubation time t (for VA = VD): […]
Background: The PAMPA barrier holds no transporters, so it reflects passive diffusion.

With `CC(Oc1ccccc1)C(=O)OCC(=O)C1(O)C(C)CC2C3CCC4=CC(=O)C=CC4(C)C3(F)C(O)CC21C` (centres unmarked) [DEX-21-PhP, dexamethasone 21-(2′-phenoxypropionate)], the “permeation parameter CA(t)/CD(0)” value was 4.1 ± 1.1% and the “retention factor R (membrane retention)” value came to 86.5 ± 4.2%.
`COC(C)C(=O)OCC(=O)C12OC(C)(C)OC1CC1C3CCC4=CC(=O)C=CC4(C)C3(F)C(O)CC12C` (centres unmarked) [TA-21-MP, triamcinolone acetonide 21-(2′-methoxypropionate)]: the “permeability coefficient log Pe” value was −4.45 ± 0.16 cm/s, the “permeation parameter CA(t)/CD(0)” value was found to be 38.1 ± 1.6% and the “retention factor R (membrane retention)” value came to 13.5 ± 4.1%.
For `CCOC(CC)C(=O)OCC(=O)C1(O)C(C)CC2C3CCC4=CC(=O)C=CC4(C)C3(F)C(O)CC21C` (centres unmarked) [DEX-21-EB, dexamethasone 21-(2′-ethoxybutyrate)], the “permeability coefficient log Pe” value is −4.58 ± 0.13 cm/s, the “permeation parameter CA(t)/CD(0)” value was found to be 33.4 ± 1.2% and the “retention factor R (membrane retention)” value is listed as 11.3 ± 3.5%.
As to `CCC(OC)C(=O)OCC(=O)C1(O)C(C)CC2C3CCC4=CC(=O)C=CC4(C)C3(F)C(O)CC21C` (centres unmarked) [DEX-21-MB, dexamethasone 21-(2′-methoxybutyrate)], the “permeability coefficient log Pe” value is −4.58 ± 0.15 cm/s, the “permeation parameter CA(t)/CD(0)” value stood at 37.4 ± 1.5% and the “retention factor R (membrane retention)” value is on record as under 1%.
In the case of `C[C@]12CCC(=O)C=C1CC[C@@H]1[C@@H]2[C@@H](O)C[C@@]2(C)[C@H]1CC[C@]2(O)C(=O)CO` [H, hydrocortisone, reference compound], the “retention factor R (membrane retention)” value is given as 1.5 ± 0.9%.
As for `CCOC(C)C(=O)OCC(=O)C12OC(C)(C)OC1CC1C3CCC4=CC(=O)C=CC4(C)C3(F)C(O)CC12C` (centres unmarked) [TA-21-EP, triamcinolone acetonide 21-(2′-ethoxypropionate)], the “permeability coefficient log Pe” value was −4.66 ± 0.15 cm/s, the “permeation parameter CA(t)/CD(0)” value stood at 23.0 ± 1.8% and the “retention factor R (membrane retention)” value is given as 32.4 ± 1.7%.
In the case of `COC(C)C(=O)OCC(=O)C1(O)C(C)CC2C3CCC4=CC(=O)C=CC4(C)C3(F)C(O)CC21C` (centres unmarked) [DEX-21-MP, dexamethasone 21-(2′-methoxypropionate)], the “permeability coefficient log Pe” value is recorded as −4.88 ± 0.17 cm/s, the “permeation parameter CA(t)/CD(0)” value is listed as 23.8 ± 1.5% and the “retention factor R (membrane retention)” value was under 1%.
In the case of `CCC(OC)C(=O)OCC(=O)C12OC(C)(C)OC1CC1C3CC(F)C4=CC(=O)C=CC4(C)C3(F)C(O)CC12C` (centres unmarked) [FA-21-MB, fluocinolone acetonide 21-(2′-methoxybutyrate)], the “permeability coefficient log Pe” value is reported as −4.65 ± 0.12 cm/s, the “permeation parameter CA(t)/CD(0)” value worked out at 18.0 ± 1.3% and the “retention factor R (membrane retention)” value was found to be 47.2 ± 3.4%.
Take `CCC(OC)C(=O)OCC(=O)C12OC(C)(C)OC1CC1C3CCC4=CC(=O)C=CC4(C)C3(F)C(O)CC12C` (centres unmarked) [TA-21-MB, triamcinolone acetonide 21-(2′-methoxybutyrate)]: the “permeability coefficient log Pe” value was −4.85 ± 0.23 cm/s, the “permeation parameter CA(t)/CD(0)” value worked out at 16.9 ± 2.0% and the “retention factor R (membrane retention)” value was found to be 39.3 ± 4.1%.
As to `CCOC(C)C(=O)OCC(=O)C1(O)C(C)CC2C3CCC4=CC(=O)C=CC4(C)C3(F)C(O)CC21C` (centres unmarked) [DEX-21-EP, dexamethasone 21-(2′-ethoxypropionate)], the “permeation parameter CA(t)/CD(0)” value is 31.6 ± 0.6% and the “retention factor R (membrane retention)” value is under 1%.
`CCOC(CC)C(=O)OCC(=O)C12OC(C)(C)OC1CC1C3CCC4=CC(=O)C=CC4(C)C3(F)C(O)CC12C` (centres unmarked) [TA-21-EB, triamcinolone acetonide 21-(2′-ethoxybutyrate)]: the “permeability coefficient log Pe” value is reported as −4.87 ± 0.21 cm/s, the “permeation parameter CA(t)/CD(0)” value amounted to 7.3 ± 1.6% and the “retention factor R (membrane retention)” value is recorded as 70.1 ± 3.4%.
